Laboratory results published in patent US5587463A, “Texaphyrin macrocycles and metal complexes thereof” (Board of Regents, The University of Texas System, priority 1994, dated 1996).

Columns and labels:
[1] = aqueous solution; 0.01 to 1 mM; cited from earlier work
[2] = test system: Herpes Simplex Virus Type 1 (HSV-1); test: HSV-1 photoinactivation, viral plaque assay in Vero cells; format: cell-based; settings: for % Survival Viral Infectivity: light at max absorption, 10 J/cm^2
From the text: The photosensitized inactivation of Herpes Simple Virus, Type 1 (HSV-1) was investigated in culture medium using various macrocycles of the present invention.
The macrocycle photosensitizing studies employed enveloped HSV-1 as the model for screening based on its ease of propagation and assessment of infectivity in cell culture. The screening procedure for photoinactivation of HSV-1 was similar to the methods previously described.^3 Essentially, selected macrocycles at different concentrations were added to a cell-free suspension of 10^6 PFU/ml of HSV-1. The viral suspensions were irradiated at the optimal absorption wavelength of the selected dye at different light-energy densities. Controls consisted of (1) nonirradiated virus, (2) virus irradiated in the absence of macrocycle, and (3) virus treated with selected concentrations of macrocycle and maintained in the dark. All samples were then assessed for viral infectivity by determining the number of PFU/ml in Vero cells.
Viral suspensions were serially diluted and subsequently absorbed onto Vero cell monolayers for 11/2 hours at 37^~ C. An overlay medium was added and the cells incubated at 37^~ C. for 3-4 days. The overlay medium was then removed, the monolayers fixed with methanol and tinctured with Giemsa, and individual plaques counted under a dissecting microscope. Uninfected cell cultures also were exposed to the macrocycle complexes to rule out direct cytotoxic effects.

[3] = Optical and photophysical properties of metallotexaphyrins (laser flash photolysis, fluorescence, singlet oxygen luminescence); format: physicochemical; settings: preliminary, photoexcitation at 350 nm
From the text: Finally, several complexes containing paramagnetic metal ions (e.g. Mn^II, Sm^III, and Eu^III, structures 5c -7c) were investigated.
Comparison of the initial intensity with that obtained using tetrakis (4-hydroxyphenyl)porphyrin (THPP) as photosensitizer^3b under identical conditions allowed calculation of the quantum yields for production of singlet oxygen (^.phi. 1.cndot.2).

[4] = Stability to demetallation (sulfide, thiosulfate); format: physicochemical
From the text: The above K1 and K2 (or K1 K2) values are predicated on the assumption that the cadmium complexes under discussion are stable with regards to demetallation and that the equilibria of equations 1 and 2 (or 3) pertain under the conditions of base binding. The first of these concerns is readily apparent: If demetallation occurs, then obviously one is not studying base binding! […] The second concern is particularly important within the context of quantitative work: If, for instance, the starting complex 3.cndot.NO3 is not rigorously five coordinate, then K1 (and perhaps K2 as well) would represent an axial ligand displacement reaction rather than a pure addition process as implied above. Control experiments indicate that the assumption of initial five coordination is reasonable: Independent titrations of 3A .cndot.NO3 with NH4 NO3 and H2 O indicate that only modest and monotonic changes in the chemical shift of the "meso" signals take place over the course of adding ≥50 equivalents of these potentially adventitious ligands.^40 This means that either "complete" binding occurs at 1:1 stoichiometry (essentially ruled out in the case of H2 O on the basis of analytical data), or that these species are poorly coordinating in CHCl3 so that five coordination pertains about cadmium; the latter interpretation appearing more likely.
(§1) Attempts to demetallate complex 3A .cndot.NO3 were made. In an effort to obtain the free sp^2 bridged ligand 2A, the above complex in chloroform was stirred for several hours in the presence of sodium sulfide and independently with sodium thiosulfate. […] In the case of sodium sulfide, this critical conclusion was further supported by FAB MS: Other than the starting cationic complex 3A, no evidence was obtained for any moderate to high molecular weight volatile products in the mass spectrum. […] The rate of this process, however, is strongly pH dependent, the half-life being, for instance, on the order of several hours in the presence of ca. 0.1N HCl.

[5] = test system: peripheral mononucleated vascular cells (PMC); test: Mitogenic assay ([3H]-Thy uptake after PHA stimulation) of peripheral mononucleated vascular cells in whole human plasma; format: cell-based; settings: 0.15 μM, 20 joules/cm^2 of 770 nm light, aerobic
Protocol: Cell kill was determined by [3H]-Thy uptake after phytohemagglutin (PHA) stimulation.
Cell kill was determined by [^3 H]-Thy uptake after PHA stimulation.
The inactivation of PMC's in the absence and presence of light after exposure to concentrations of complex 3A in whole human plasma ranging from 0.015 to 38 μM is shown in FIG. 29 and FIG. 30. Inactivation was judged by mitogenic assay. Toxicity onset with 3A (see FIG. 4B) and 1c (see FIG. 19) in the absence of light was between 0.15 and 1.5 μM (FIG. 29). […] Moderate increase in either photosensitizer concentration or light dosage is expected to result in essentially complete cellular inactivation.

[6] = Axial base binding of benzimidazole, 1H NMR spectral titration; settings: CDCl3; Scatchard plot; estimated error ≤15%; read-out: K1 (benzimidazole) (converted)
From the text: For a rigorously five coordinate starting cadmium complex, such as that represented schematically by structure 3A, where neither the counter anion nor adventitious ligands serves to occupy an apical coordination site, base binding can be considered to occur in accord with equations (1) and (2) shown below. Under conditions where K1 […]K2, these processes can be considered to occur sequentially, giving first a monoligated, presumably pentagonal pyramidal six coordinate species (such as 4bA), followed by a coordinatively saturated bisligated pentagonal bipyramidal product akin to 5aA. Where, however, K2 >>K1this stepwise conceptual approach is invalid. Under these conditions, it becomes easier to analyze the base binding in terms of direct formation of the bisligated material as shown in equation (3).
L+B LB K1 =[LB]/[L][B] (1)
LB+B LB2 K2 =[LB2 ]/[LB][B] (2)
L+2B LB2 K1 K2 =[LB2 ]/[L][B]^2 (3)
The ^1 H NMR titration of 3A .cndot.NO3 with BzIm or pyr-D5 was done. Rigorously purified complex 3A .cndot.NO3 was dried at 80° C. under reduced pressure (1 mmHg) for 1 day. Starting samples for titration were then prepared by dissolving this five coordinate complex (3.32 mg, 0.005 mmol) in 0.7 to 0.75 ml of CDCl3 and transferring quantitatively to an NMR tube. To such samples were then added increasing aliquots of either BzIm or pyr-D5 (as solutions of known concentration in CDCl3) and recording the chemical shift of the "meso" protons at 27^Q C. Control experiments were also carried out by adding known quantities of CF3 CO2 H, D2 O, and NH4 NO3 to similar stock solutions of 3.cndot.NO3.
Determination of Binding Constants. […] The chemical shift data obtained for the "meso" signals as a function of added BzIm were thus analyzed as such at both very low and very high conversion: Standard Scatchard (single reciprocal) plots^38 were constructed by plotting (δ-δo)/[BzIm] vs (δ-δo) according to equation 4 (which corresponds to eq. 5.13 of ref. 38), obtaining K as the absolute value of the slope and the term (δ.infin. -δo)K as the intercept.
(δ-δo)/[BzIm]=-K(δ-δo)+(δ.infi
Here δ is the observed chemical shift, δo is the initial chemical shift of the pure five or six coordinate starting complex (3A .cndot.NO3 or 4bA --NO3), δ.infin. the chemical shift calculated for the final mono- or bisligated complexes 4bA .cndot.NO3 or 5aA .cndot.NO3, K the equilibrium constant in question, and [BzIm] the concentration of free, uncomplexed benzimidazole. […] This was done in a straightforward manner according to the expressions given in equations 5 and 6, where [lig]o represents the concentration of the starting five coordinate ligand 3A .cndot.NO3.
(δ-δo)/δ.infin. -δo) at low
[BzIm].congruent.[BzIm]o -[lig]o at high [BzIm]o (6)
Using these corrected values for [BzIm], straight line Scatchard plots were obtained with R[…]0.99 and 0.98 respectively for the low and high [BzIm]o regimes giving values of K1 and K2 of 1.80×10^4 M^-1 and 12.9 M^-1 respectively.

[7] = Hydrolysis in aqueous acid; format: physicochemical; settings: aqueous acid
From the text: as §1

tumor = settings: in vivo; cited from earlier work
[8] = 37° C. in water, 20 MHz; cited from earlier work
[9] = cited from earlier work

**Q.** For `[Gd+3]` [Gd(III)], which “toxicity for direct use in MRI imaging” value [1] is on record?
**A.** The value was “too toxic to be used directly”.

**Q.** With `CCC1=C(C)c2cnc3ccccc3ncc3nc(cc4[n-]c(cc1n2)c(CC)c4CC)C(CC)=C3C.[Cd+2]` [complex 3A] as the compound, how does the “% Survival Viral Infectivity” value ([2]; 0.25 μM) read?
**A.** Its value is 100%.

**Q.** And the “% Survival Viral Infectivity” value ([2]; 2.5 μM)?
**A.** The value was 20%.

**Q.** What about the “% Survival Viral Infectivity” value ([2]; 10 μM) of the same compound?
**A.** The value was 8%.

**Q.** And the “% Survival Viral Infectivity” value ([2]; 20 μM)?
**A.** Its value is 12%.

**Q.** What about the viral inactivation ([2]; 20 μM, viral plaque assay) of the same compound?
**A.** The viral inactivation was at least 90%.

**Q.** What about the triplet quantum yield [3] of the same compound?
**A.** The triplet quantum yield was “roughly 80%”.

**Q.** What about the “triplet quenching in the presence of air” value [3] of the same compound?
**A.** The value was “quenched completely by formation of singlet oxygen”.

**Q.** And the triplet lifetime ([3]; absence of oxygen)?
**A.** The triplet lifetime was 54 μs.

**Q.** And the demetallation by sulfide ([4]; aqueous Na2 S / excess sulfide anion)?
**A.** Its demetallation by sulfide is “no demetallation takes place”.

**Q.** What about the “stability relative to cadmium porphyrins” value ([4]; neutral conditions / base binding controls) of the same compound?
**A.** The value was “more stable than cadmium porphyrins”.

**Q.** What about the “inhibition of cellular division” value [5] of the same compound?
**A.** The value was “significant inhibition of the cellular division of PMC's”.

**Q.** What about the Kd [6] of the same compound?
**A.** The Kd was 55.6 µM.

**Q.** And the “hydrolysis in aqueous acid” value [7]?
**A.** Its value is “leads to hydrolysis of the macrocyle”.

**Q.** For `O=S(=O)([O-])c1ccc(-c2c3nc(c(-c4ccc(S(=O)(=O)[O-])cc4)c4ccc([n-]4)c(-c4ccc(S(=O)(=O)[O-])cc4)c4ccc([n-]4)c(-c4ccc(S(=O)(=O)[O-])cc4)c4nc2C=C4)C=C3)cc1.[Mn+3]` [[Mn(III)TPPS]^3 -], which tumor localizing properties (tumor) is on record?
**A.** Its tumor localizing properties is “good tumor localizing properties”.

**Q.** Which relaxivity [8] does the source give for `CNC[C@H](O)[C@@H](O)[C@H](O)[C@H](O)CO.CNC[C@H](O)[C@@H](O)[C@H](O)[C@H](O)CO.O=C([O-])CN(CCN(CC(=O)[O-])CC(=O)O)CCN(CC(=O)[O-])CC(=O)O.[Gd+3]` [[Gd(DTpA)(H2 O)]^2-, bis(N-methylglucamine) salt of Gd(III) diethylenetriaminepentaacetate] here?
**A.** The relaxivity was 3.7 mM-^1 s-^1.

**Q.** What about the excretion ([9]; after administration) of the same compound?
**A.** The excretion was “excreted intact through the kidneys within several days of administration”.

**Q.** What about the localization ([9]; in vivo) of the same compound?
**A.** Its localization is “localizes selectively in extracellular regions”.
